Reference: patent US20100331363A1, “TREATMENT OF MITOCHONDRIAL DISORDERS USING A FARNESYL TRANSFERASE INHIBITOR” (Link Medicine Corporation, priority 2008, published 2010)
Entries after “also recorded” stand apart in the source; their conditions may differ.

Columns and labels:
isolated islets / INS1 = experiment: Oxygen consumption, Seahorse XF24 bioenergetic assay; format: cell-based; settings: 1 nM
Experimental: Impaired mitochondrial function is shown by a decreased rate of oxygen consumption. […] The effect of LNK-754 at 1 nM and 10 nM doses on oxygen consumption was determined. Oxygen consumption in INS1 was measured using a Seahorse XF24 bioenergetic assay. Assays have been previously described in detail (See, Wu M, et al. Am J Physiol Cell Physiol 2007; 292:C125-36).

human α-synuclein = experiment: Masliah D-line α-synuclein transgenic mouse, α-synuclein immunoreactivity and ELISA; format: in vivo
Experimental: Animals and treatments: Male and female human WT alpha-synuclein over-expressing transgenic mice^32 at 6 months of age were given vehicle (10% beta-cyclodextrin) or LNK-754-TS (0.09, 0.9 and 9 mg/kg) per oral gavage twice daily for 3 months or animals at 7 months of age were given vehicle (2.5% beta-cyclodextrin) or LNK-754-TS (2 mg/kg) once every three days for 3 months. Male and female TAU transgenic mice expressing TAU441 bearing the missense mutations V337M^50 and R406W under the control of the murine Thy-1 promoter with a CB6xC57BL/6 background were 5 months old at the time when the oral treatment for three months with LNK-754-TS (0.9 and 0.09 mg/kg) as well as vehicle (2.5% beta-cyclodextrin) was started. Female human APP/PS1 (APP (London V7171)/PS1(A246E)) over-expressing transgenic mice were treated with LNK-754-TS (0.9 mg/kg) or vehicle (2.5% beta-cyclodextrin) for 2 months or 12 days.
(§1) Immunohistochemistry and quantification of stained cells: For evaluation of α-synuclein immunoreactivity (IR), 5 sagittal cryo-cut sections (10 μm slice thickness) from five different layers were used for counting of IR cells in the cortex and hippocampus. Brain sections were stained with a monoclonal human α-synuclein specific antibody (Alexis®; Cat#804-258-L001; dilution 1:5), followed by a secondary Ab Cy 2-Goat Anti-Rat (Jackson ImmunoResearch®; dilution 1:200). IR positive cells were quantified using specialized image analysis software (Image Pro Plus, version 4.5.1.29). For Tau transgenic animals, 5 μm thick coronal paraffin sections were stained with the monoclonal mouse anti-human TAU-antibodies (AT180—1:100; HT7—1:500) and visualized using an anti-mouse Cy3 secondary antibody (1:500, Jackson Laboratories®). Images were evaluated with ImageProPlus (version 6.2) image analysis software. For APP/PS1 transgenic animals sagittal hemisections (40 μm) were collected and processed for Aβ immunohistochemistry using an 6E10 antibody, Thioflavin-S staining. Primary antibodies were detected by the ABC method.
(§2) ELISA quantification of α-Synuclein in the α-Synuclein transgenic animals: Brain homogenate was centrifuged and the supernatant saved as fraction F1. The pellet was washed then resuspended and saved as fraction F2. Plates (Nunc, 464718) were coated with SYN-1 (1:1000, BD Transduction Labs, 610787). Monomeric recombinant α-synuclein was included as an internal standard. Biotinylated antibody FL-140 (1:300, Santa Cruz Biotechnology, sc-10717-B) and ExtrAvidin-Alkaline phosphatase (3:5000, Sigma, E2636) was added followed by pNPP substrate solution (Sigma, N1891). Raw absorbance (405 nm) was then normalized to the total protein concentration of each sample. In the APP/PS1 transgenic animal, brains were homogenized and the supernatant, Faction 1, was separated from the pellet. The pellets were further processed with addition of NP40 and Triton X-100. The supernatant was separated from the pellet as the insoluble membrane, Fraction 2, and was dissolved in 8M Guanidine. To quantify the amount of human Aβ-40 and Aβ-42, ELISA kits were used (The Genetics Company, Zurich, Switzerland).
In FIG. 2 is shown efficacy data for LNK-754-TS in the Masliah D-line transgenic α-synuclein mouse (an accepted model of synucleinopathies). Two trials are shown, the first (FIG. 2A) at higher doses of LNK-754-TS: 45 mg/kg and 9 mg/kg. […] The second trial (FIG. 2B) explores the low dose range for efficacy in the α-synuclein models. Here, doses start as low as 0.9 mg/kg, and extend through 9 mg/kg, all below the efficacious dose range in the mouse oncology model.
After dosing with LNK-754-TS for three months (twice daily at 0.09 mg/kg or 0.9 mg/kg), α-synuclein accumulation in the brain was analyzed by immunohistochemical (human specific α-synuclein immunoreactivity) and biochemical (α-synuclein ELISA) means. […]

Aβ = Aβ immunohistochemistry, Thioflavin-S and Aβ40/Aβ42 ELISA in APP/PS1 transgenic mice; format: in vivo, mouse
Description: as §1, §2
Mice were treated with LNK-754-TS for two months, tested for performance in the Morris water maze (MWM), and then sacrificed for immunohistochemical (Aβimmunoreactivity) and biochemical (ELISA measurement of Aβ40 and Aβ42) analysis.

[1] = system: LC3-positive puncta (autophagosomes); experiment: LC3 immunostaining (LC3-positive puncta) in SH-SY5Y cells; format: cell-based, human; settings: 100 nM, SH-SY5Y (FIG. 8b)
Experimental: Cell culture and immunocytochemistry: SH-SY5Y cells were grown in DMEM medium supplemented with 10% FBS and 1% pen/strep at 37° C. and 5% CO2. Cells were differentiated with 10 μM retinoic acid for 48 hr, then treated with the either rapamycin (100 nM or 1 μM) or with 100 nM of either LNK-754-TS or Tipifarnib for 48-72 hr. Cells were then fixed with 4% paraformaldehyde and stained for LC3 (Novus biological, NB100-2331, dilution 1:800) followed by secondary Alexa-564 anti-Rabbit (A-11011).
Autophagy was measured in a neuroblastoma cell culture system by three distinct approaches: quantitation of autophagy-related mRNA's, immunofluorescence microscopy of autophagosomes, and biochemical detection of the microtubule-associated protein 1 light chain 3 (LC3) a key protein that is required for autophagosome formation. Differentiated human neuroblastoma cells (SH-SY5Y) were treated for 72 hr with LNK-754-TS (0.01-100 nM), Zarnestra® (also referred to herein as tipifarnib) (100 nM) or rapamycin (1 μM).

[2] = 9 mg/kg PO BID 3 months, first trial (FIG. 2A)
[3] = 45 mg/kg PO BID 3 months (FIG. 2A)
[4] = α-synuclein transgenic mice vs vehicle
[5] = 0.9 mg/kg once every 24 hr, two months
[6] = 0.09 or 0.9 mg/kg twice daily, three months

For `C#Cc1cccc(-c2cc(=O)n(C)c3ccc([C@](O)(c4ccc(Cl)cc4)c4cncn4C)cc23)c1` [LNK-754, (R)-6-[(4-chlorophenyl)-hydroxyl-(1-methyl-1-H-imidazol-5-yl)-methyl]-4-(3-ethynylphenyl)-1-methyl-2-(1H)-quinonlinone], the “oxygen consumption (OCR)” value (isolated islets / INS1) was “increases oxygen consumption”, the “number of α-synuclein positive neurons” value (human α-synuclein; 0.9 mg/kg, second trial (FIG. 2B)) was “significantly lowered” and the “number of α-synuclein positive neurons” value (human α-synuclein; [2]) was “found to significantly lower”. For the same molecule, the “number of α-synuclein positive neurons” value (human α-synuclein; [3]) was “did not significantly lower; also recorded: not found to significantly lower”, the “levels of α-synuclein in the hippocampus” value (human α-synuclein; [4]) was “decrease levels of α-synuclein” and the α-synuclein inclusions (human α-synuclein; [4]) was “fewer α-synuclein inclusions”.
`C#Cc1cccc(-c2cc(=O)n(C)c3ccc([C@](O)(c4ccc(Cl)cc4)c4cncn4C)cc23)c1` [LNK-754-TS, (R)-6-[(4-chlorophenyl)-hydroxyl-(1-methyl-1-H-imidazol-5-yl)-methyl]-4-(3-ethynylphenyl)-1-methyl-2-(1H)-quinonlinone (2S, 3S)-dihydroxybutanedioate] was tested, and the “Thioflavin-S staining in the subiculum” value (Aβ; [5]) was “no statistically significant changes”, the “levels of Aβ40/Aβ42 from whole brain fractions, ELISA” value (Aβ; [5]) was “no statistically significant changes” and the “number of Aβ (6E10) immunoreactive plaques in the subiculum” value (Aβ; 0.9 mg/kg once every 24 hr, two months, vs vehicle) was “lesser, but still significant, effect; also recorded: significant decrease”. The “Aβ40 or Aβ42 levels, Aβ immunoreactivity or Thio-S staining” value (Aβ; 0.9 mg/kg, 12 days) was “no significant reduction”, the “number of LC3-positive puncta” value [1] was “distinct increase; also recorded: increased” and the “α-synuclein accumulation in brain (immunoreactivity and ELISA)” value (human α-synuclein; 0.09 mg/kg or 0.9 mg/kg twice daily, three months, cortex and hippocampus) was “clearly reduced; also recorded: halts deposition”. For the same molecule, the “cortical α-synuclein immunoreactivity” value (human α-synuclein; 2 mg/kg once every 72 hours, three months, vs baseline and vehicle) was “significantly lower than at the outset of treatment; also recorded: significantly reduces”, the “number of α-synuclein positive neurons” value (human α-synuclein; [2]) was “significant reduction” and the “number of α-synuclein IR cells in hippocampus” value (human α-synuclein; 9 mg/kg PO BID 3 months, second lower dose trial (FIG. 2B)) was “significance level was not reached”. For the same molecule, the “number of α-synuclein positive neurons” value (human α-synuclein; [3]) was “not significantly effective”, the “astrocytosis (GFAP staining)” value (human α-synuclein; [6]) was “GFAP staining was unchanged” and the drug-dependent toxicity (human α-synuclein; [6]) was “None of the treated animals showed any evidence”. For the same molecule, the “neuronal loss (NeuN staining and brain volume)” value (human α-synuclein; [6]) was “no evidence of neuronal loss”, the “synaptic damage (synaptophysin staining)” value (human α-synuclein; [6]) was “synaptophysin staining was unchanged” and the “reduction of α-synuclein immunoreactivity, hippocampal slices” value (human α-synuclein; three-month dosing trial (FIG. 9c)) was “ca. 50%”.
